Measured values from patent US7834141B1, “Non-mammalian GnRH analogs and uses thereof in tumor cell growth regulation and cancer therapy” (priority 2000, dated 2010).
Like-named read-outs stand apart in the source and are kept apart here. Values belong to the compound of their own block, whether it stands above or below them. Where a SMILES comes first, the peptide text is derived from it.

Columns and labels:
[1] = tested on: chorionic post-proline peptidase; test: Competitive inhibition of mammalian GnRH degradation by chorionic post-proline peptidase (enzymatic activity assay, RIA of remaining substrate); conditions: for relative potency of inhibition of chorionic post-proline peptidase activity compared to that for GnRH: substrate mammalian GnRH, GnRH = 1
Procedure: (§1) Using the incubation system developed for chorionic post-proline peptidase activity, the degradation of GnRH was tested. Each of these analogs (SEQ ID NO: 2, SEQ ID NO: 4 and SEQ ID NO: 7) were first studied for their ability to act as a competitive inhibitor of GnRH for chorionic post-proline peptidase activity using the enzymatic activity assay as described previously (103). […] The reaction was stopped by heating at 85° C. for 10 minutes. […] The product formed, i.e. the N-terminal nonapeptide of GnRH, was calculated by subtraction, and its inverse plotted against the inverse of the original substrate concentrations to determine the Ks of the competition. The Ki was determined by plotting the inverse of the product that formed versus the inhibitor used.

[2] = tested on: MCF-7 breast cancer cells; test: MCF-7 breast cancer cell culture viability, Alamar Blue assay; format: cell-based, human; conditions: for inhibition of cell proliferation (cell viability, Alamar Blue): MCF-7, 24 hours of incubation, dose-response; for inhibition of cell proliferation: MCF-7, 48 hours of incubation
Procedure: This system allows for replicated extended activity studies.
The bio-potency studies were done with a MCF-7 breast cancer cell culture system and the cell viability as a measure of survival was assessed using the Alamar Blue assay. The percent difference in the Alamar Blue optical density (OD) readings at 570 and 600 nm in the treated and untreated controls was determined. […] A dose-response study in quadruplicate cultures was performed. Cell viability was assessed after 24 and 48 hours of incubation with the activity agent.

[3] = tested on: GnRH receptors on the cells of MCF-7 breast cancer cells; test: Competitive binding of I^125-D-Arg(6)-Chicken II GnRH-aza-Gly(10)-amide to MCF-7 breast cancer cells; design: species or system human; conditions: for competitive inhibition of I^125-D-Arg(6)-Chicken II GnRH-aza-Gly(10)-amide binding (rank of potency): MCF-7 cells, 24 hours at room temperature; for receptor potency (in words): receptor test not given
Procedure: GnRH receptors on the cells of MCF-7 breast cancer cells were studied. The cells were plated on 96 wells and grown to confluency in base medium (M3D:Fetal Bovine Serum [9:1]). Prior to the experiment the cells were down shifted to M3D:Fetal Bovine Serum [99:1] and then to serum-free medium. […] Addition of enzyme inhibitors of the endogenous post-proline peptidase and other peptidases were used as well as agents for receptor stabilization. Receptor bound label was separated by centrifugation. The binding of the non-mammalian GnRH analog and its ability to regulate the tumor cells' GnRH receptor was compared. […] This was followed by Buserilin. […] This indicated the high innate affinity of this isoform of GnRH for the tumor GnRH receptor. It is believed by Applicants that the same or similar results could be obtained using other non-mammalian GnRH isomers or analogs with similar amino acid structure as Chicken II GnRH such as but not limited to Salmon GnRH, Herring GnRH, Catfish GnRH, or Dogfish GnRH.

[4] = tested on: MCF-7 breast cancer cells; test: Degradation of GnRH and analogs by tumor tissue cells, with or without peptidase inhibitors; format: in vitro ADME, human
Source text: Post-Proline Peptidase Stability Studies: As mentioned earlier, the post-proline peptidase is important in actively degrading peptides that contain a proline residue. GnRH is such a peptide. Initially the enzymatic activity of the tumor cell was studied. Tumor tissue cells and their spent media were studied for enzyme activity. In particular, examination was made for the degradation of GnRH both with and without specific post-proline and endopeptidase activity inhibitors to determine the specificity of the tumor enzymatic activity.
Chorionic post-proline peptidase is a peptidase with high specificity for the degradation of GnRH at the proline-glycine bond, but can also degrade other GnRH species containing this bond.

[5] = tested on: chorionic post-proline peptidase
Procedure: as §1

Compound: CCNC(=O)[C@@H]1CCCN1C(=O)[C@H](CCCNC(=N)N)NC(=O)[C@H](CC(C)C)NC(=O)[C@@H](COC(C)(C)C)NC(=O)[C@H](Cc1ccc(O)cc1)NC(=O)[C@H](CO)NC(=O)[C@H](Cc1c[nH]c2ccccc12)NC(=O)[C@H](Cc1cnc[nH]1)NC(=O)[C@@H]1CCC(=O)N1 [Buserilin]
degradation by chorionic post-proline peptidase (in words) [1]: competitively inhibited the degradation of mammalian GnRH | inhibition of cell proliferation (cell viability, Alamar Blue) [2]: totally inactive

Compound: des-Gly(10)-GnRH ethylamide
degradation by chorionic post-proline peptidase (in words) [1]: competitively inhibited the degradation of mammalian GnRH

degradation by chorionic post-proline peptidase (in words) [1]: resistant to degradation
Compound: N=C(N)NCCC[C@@H](NC(=O)[C@H](Cc1c[nH]cn1)NC(=O)[C@H](CO)NC(=O)[C@H](Cc1c[nH]c2ccccc12)NC(=O)[C@H](Cc1c[nH]cn1)NC(=O)[C@@H]1CCC(=O)N1)C(=O)N[C@@H](Cc1c[nH]c2ccccc12)C(=O)N[C@@H](Cc1ccc(O)cc1)C(=O)N1CCC[C@H]1C(=O)NNC(N)=O [D-Arg(6)-Chicken II GnRH-aza-Gly(10)-amide] (HELM PEPTIDE1{[Glp].H.W.S.H.[dR].W.Y.P.[O=C(NN[*:1])[*:2]].[am]}$$$$V2.0)
inhibition of cell proliferation (cell viability, Alamar Blue) [2]: positive dose-related activity | inhibition of cell proliferation at 10^−5 M ([2]; MCF-7, 24 hours, 10^−5 M): markedly active | inhibition of cell proliferation [2]: equally as potent as at 24 hours | binding of I^125-labelled analog to MCF-7 breast cancer cells ([3]; 24 hours of incubation, no exogenous GnRH): specifically bound the MCF-7 breast cancer cells | competitive inhibition of I^125-D-Arg(6)-Chicken II GnRH-aza-Gly(10)-amide binding (rank of potency) [3]: greatest potency | receptor potency (in words) [3]: increased receptor potency

Compound: CCNC(=O)[C@@H]1CCCN1C(=O)[C@H](CCCNC(=N)N)NC(=O)[C@H](CC(C)C)NC(=O)[C@@H](CC(C)C)NC(=O)[C@H](Cc1ccc(O)cc1)NC(=O)[C@H](CO)NC(=O)[C@H](Cc1c[nH]c2ccccc12)NC(=O)[C@H](Cc1c[nH]cn1)NC(=O)[C@@H]1CCC(=O)N1 [Leuprolide]
inhibition of cell proliferation (cell viability, Alamar Blue) [2]: totally inactive

Compound: des-Gly(10)-D-Leu(6)-GnRH ethylamide
degradation by chorionic post-proline peptidase (in words) [1]: competitively inhibited the degradation of mammalian GnRH

Compound: des-Gly(10), D-Trp(6)-GnRH ethylamide
degradation by chorionic post-proline peptidase (in words) [1]: competitively inhibited the degradation of mammalian GnRH

relative potency of inhibition of chorionic post-proline peptidase activity compared to that for GnRH [1]: 1.5
Compound: OH-Pro(9)-GnRH

Compound: CC[C@H](C)[C@H](N)C1=N[C@H](C(=O)N[C@@H](CC(C)C)C(=O)N[C@H](CCC(=O)O)C(=O)N[C@H](C(=O)N[C@H]2CCCCNC(=O)[C@H](CC(N)=O)NC(=O)[C@@H](CC(=O)O)NC(=O)[C@H](Cc3cnc[nH]3)NC(=O)[C@@H](Cc3ccccc3)NC(=O)[C@H]([C@@H](C)CC)NC(=O)[C@@H](CCCN)NC2=O)[C@@H](C)CC)CS1 [bacitracin] (HELM PEPTIDE1{[CC[C@H](C)[C@H](N)C1=N[C@H](C(=O)[*:2])CS1].L.[dE].I.K.[NCCC[C@@H](N[*:1])C(=O)[*:2]].I.[dF].H.[dD].N}$PEPTIDE1,PEPTIDE1,5:R3-11:R2$$$V2.0)
inhibition of the degradation of mammalian GnRH in tumor cell extracts ([4]; specific inhibitors of post-proline peptidase): inhibited

degradation by chorionic post-proline peptidase (in words) [1]: degraded with reduced activity | potency as competitor for chorionic post-proline peptidase compared to GnRH (in words) [1]: three fold less potent than GnRH | relative potency of inhibition of chorionic post-proline peptidase activity compared to that for GnRH [1]: 0.6
Compound: Antide

Compound: Mammalian GnRH: mammalian gonadotropin releasing hormone decapeptide
degradation of mammalian GnRH by the tumor tissue cells ([4]; after overnight incubation): ~100% | inhibition of cell proliferation [2]: totally ineffective | degradation by chorionic post-proline peptidase (in words) [5]: actively degraded | competitive inhibition of I^125-D-Arg(6)-Chicken II GnRH-aza-Gly(10)-amide binding (rank of potency) [3]: weakest competitor

Compound: Im-btl-D-His(6)-GnRH-ethylamide
receptor potency (in words) [3]: reduced receptor potency
